{"source": "paper PMC3583342", "about": "(Clinical pharmacology and therapeutics, 2008)", "key": {"Intravenous": {"test": "Intravenous", "details": "human, in vivo, 6 mg, mean ± SD, n=12; for AUC(0-t): AUC0-96, IV methadone HCl 6.0 mg; for AUC(0-inf): AUC0-∞"}, "Oral": {"test": "Oral", "details": "human, in vivo, 11.2 mg; for AUC(0-t): AUC0-96, oral d5-methadone HCl 11.2 mg; for AUC(0-t) / AUC(0-inf) / Cmax: mean ± SD, n=12; for AUC(0-inf): AUC0-∞; for AUC(0-inf) / Cmax / Tmax: oral d5-methadone HCl 11.2 mg; for Tmax: median (range)"}, "[1]": {"details": "cited from earlier work"}, "[2]": {"test_system": "dark-adapted pupil diameter (miosis)", "test": "Methadone pharmacodynamics: dark-adapted pupil diameter change", "assay_type": "in vivo, human", "details": "for Maximum miosis / AUEC0-∞: mean ± SD, n=11; for AUEC0-∞: miosis"}, "[3]": {"details": "human, in vivo, po"}, "P-gp": {"test_system": "P-gp", "details": "oral fexofenadine P-gp probe, cited from earlier work"}, "[4]": {"details": "6.0 mg IV plus 11.2 mg oral methadone HCl"}, "[5]": {"details": "6.0 mg IV plus 11.2 mg oral methadone HCl, acute ritonavir"}, "[6]": {"details": "6.0 mg IV plus 11.2 mg oral methadone HCl, control"}, "[7]": {"details": "6.0 mg IV plus 11.2 mg oral methadone HCl, steady-state ritonavir"}}, "note": "Several values for one entry are separate records, joined by “and”; a condition that tells them apart may be missing. Identical values can stand only once. Like-named read-outs stand apart in the source and are kept apart here.", "data": [{"molecule": "CCC(=O)C(C[C@H](C)N(C)C)(c1ccccc1)c1ccccc1", "note": "[S-methadone]", "values": [{"measurement": "AUC(0-t)", "setting": "Intravenous; acute ritonavir", "result": "215 ± 93", "unit": "ng·h/mL"}, {"measurement": "AUC(0-t)", "setting": "Intravenous; control", "result": "379 ± 164", "unit": "ng·h/mL"}, {"measurement": "AUC(0-t)", "setting": "Intravenous; steady-state ritonavir", "result": "187 ± 107", "unit": "ng·h/mL"}, {"measurement": "AUC(0-inf)", "setting": "Intravenous; IV methadone HCl 6.0 mg, acute ritonavir", "result": "241 ± 120", "unit": "ng·h/mL"}, {"measurement": "AUC(0-inf)", "setting": "Intravenous; IV methadone HCl 6.0 mg, steady-state ritonavir", "result": "211 ± 129", "unit": "ng·h/mL"}, {"measurement": "Cmax", "setting": "Intravenous; Cmax, IV methadone HCl 6.0 mg, steady-state ritonavir", "result": "57 ± 29", "unit": "ng/mL"}, {"measurement": "AUC(0-t)", "setting": "Oral; acute ritonavir", "result": "336 ± 170", "unit": "ng·h/mL"}, {"measurement": "AUC(0-t)", "setting": "Oral; control", "result": "580 ± 253", "unit": "ng·h/mL"}, {"measurement": "AUC(0-t)", "setting": "Oral; steady-state ritonavir", "result": "308 ± 161", "unit": "ng·h/mL"}, {"measurement": "AUC(0-inf)", "setting": "Oral; acute ritonavir", "result": "388 ± 233", "unit": "ng·h/mL"}, {"measurement": "AUC(0-inf)", "setting": "Oral; control", "result": "672 ± 335", "unit": "ng·h/mL"}, {"measurement": "AUC(0-inf)", "setting": "Oral; steady-state ritonavir", "result": "340 ± 205", "unit": "ng·h/mL"}, {"measurement": "Cmax", "setting": "Oral; acute ritonavir", "result": "13 ± 6", "unit": "ng/mL"}, {"measurement": "Cmax", "setting": "Oral; control", "result": "21 ± 8", "unit": "ng/mL"}, {"measurement": "Tmax", "setting": "Oral; acute ritonavir", "result": 4, "unit": "h"}, {"measurement": "Tmax", "setting": "Oral; control", "result": 2, "unit": "h"}, {"measurement": "Tmax", "setting": "Oral; steady-state ritonavir", "result": 4, "unit": "h"}]}, {"molecule": "CCC(=O)C(CC(C)N(C)C)(c1ccccc1)c1ccccc1", "note": "(stereo not shown) [methadone]", "values": [{"measurement": "effect on plasma racemic methadone Cmax and AUC0-24", "setting": "[1]; 100mg ritonavir alone for 7d", "result": "no effect"}, {"measurement": "decreases in methadone plasma concentrations after ritonavir initiation", "setting": "[1]; patients on stable methadone doses, no withdrawal symptoms", "result": "30-50%"}, {"measurement": "time at which miosis was first detectable (first time point)", "setting": "[2]; [4]", "result": 2, "unit": "min"}, {"measurement": "time of peak miosis effects", "setting": "[2]; [4]", "result": "5 to 10", "unit": "min"}, {"measurement": "Maximum miosis", "setting": "[2]; [5]", "result": "5.1 ± 1.0", "unit": "mm"}, {"measurement": "Maximum miosis", "setting": "[2]; [6]", "result": "4.3 ± 1.2", "unit": "mm"}, {"measurement": "Maximum miosis", "setting": "[2]; [7]", "result": "4.2 ± 0.6", "unit": "mm"}, {"measurement": "Emax", "setting": "[2]; in vivo", "result": "3.0 ± 0.2 mm and 4.2 ± 0.2 ^b mm and 3.3 ± 0.1 ^c mm"}, {"measurement": "AUEC0-∞", "setting": "[2]; [5]", "result": "135 ± 61", "unit": "mm•hr"}, {"measurement": "AUEC0-∞", "setting": "[2]; [6]", "result": "117 ± 61", "unit": "mm•hr"}, {"measurement": "AUEC0-∞", "setting": "[2]; [7]", "result": "91 ± 46", "unit": "mm•hr"}, {"measurement": "time of second plasma concentration peak", "setting": "[3]", "result": "3 to 4", "unit": "h"}]}, {"molecule": "CC(C)c1nc(CN(C)C(=O)N[C@H](C(=O)N[C@@H](Cc2ccccc2)C[C@H](O)[C@H](Cc2ccccc2)NC(=O)OCc2cncs2)C(C)C)cs1", "note": "[ritonavir]", "values": [{"measurement": "increase in fexofenadine plasma AUC", "setting": "P-gp; acute ritonavir", "result": 2.8, "unit": "fold"}, {"measurement": "increase in fexofenadine plasma AUC", "setting": "P-gp; steady-state ritonavir", "result": 1.4, "unit": "fold"}]}]}
